Results taken from PubChem BioAssay AID248 (DTP/NCI, 2004).
“And” between values parts separate entries of the source, which are not always exact repeats. Equal entries are not always repeated. Toxic doses and inconclusive results are not listed. No stated cut-off is given here; in the data, active means T/C of 150% or more; inactive means T/C below 125%.

Test system: L1210 leukemia ip in BDF1 mice, survival T/C
Test: NCI In Vivo Anticancer Drug Screen. Data for tumor model L1210 Leukemia (intraperitoneal) in B6D2F1 (BDF1) mice
Conditions: endpoint: mean survival time, higher = longer survival
In short: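 Value reflects the ratio of survival in compound-treated mice to survival in vehicle-treated controls, with both groups carrying the same transplanted tumor.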

[1] = dose: 100.0 mg/kg/injection, schedule: Q01DX001 (ip), vehicle: saline
[2] = dose: 200.0 mg/kg/injection, schedule: Q01DX001 (ip), vehicle: saline
[3] = dose: 400.0 mg/kg/injection, schedule: Q01DX001 (ip), vehicle: saline
[4] = dose: 100.0 mg/kg/injection, schedule: Q01DX009 (ip), vehicle: Klucel (hydroxypropylcellulose) (HPC)
[5] = dose: 200.0 mg/kg/injection, schedule: Q01DX009 (ip), vehicle: Klucel (hydroxypropylcellulose) (HPC)
[6] = dose: 400.0 mg/kg/injection, schedule: Q01DX009 (ip), vehicle: Klucel (hydroxypropylcellulose) (HPC)
[7] = dose: 100.0 mg/kg/injection, schedule: Q04DX003 (ip), vehicle: Klucel (hydroxypropylcellulose) (HPC)
[8] = dose: 200.0 mg/kg/injection, schedule: Q04DX003 (ip), vehicle: Klucel (hydroxypropylcellulose) (HPC)
[9] = dose: 400.0 mg/kg/injection, schedule: Q04DX003 (ip), vehicle: Klucel (hydroxypropylcellulose) (HPC)
[10] = dose: 25.0 mg/kg/injection, schedule: Q04DX002 (ip), vehicle: saline with Tween-80
[11] = dose: 50.0 mg/kg/injection, schedule: Q04DX002 (ip), vehicle: saline with Tween-80
[12] = dose: 100.0 mg/kg/injection, schedule: Q04DX002 (ip), vehicle: saline with Tween-80
[13] = dose: 200.0 mg/kg/injection, schedule: Q04DX002 (ip), vehicle: saline with Tween-80

Measured: T/C

O=C(Nc1ccc(C(=O)Nc2cccc(C3=NCCN3)c2)cc1)Nc1ccc(C(=O)Nc2cccc(C3=NCCN3)c2)cc1
inactive: dose: 3.75 mg/kg/injection, schedule: Q01DX Z (ip), vehicle: methylcellulose (MC) 101 % of control | dose: 3.8 mg/kg/injection, schedule: Q01DX Z (ip), vehicle: methylcellulose (MC) 100 % of control | dose: 7.5 mg/kg/injection, schedule: Q01DX Z (ip), vehicle: methylcellulose (MC) 97 % of control | dose: 15.0 mg/kg/injection, schedule: Q01DX Z (ip), vehicle: methylcellulose (MC) 106 % of control | dose: 30.0 mg/kg/injection, schedule: Q01DX Z (ip), vehicle: methylcellulose (MC) 118 % of control and 86 % of control | dose: 50.0 mg/kg/injection, schedule: Q01DX001 (ip), vehicle: carboxymethylcellulose (CMC) 103 % of control | dose: 100.0 mg/kg/injection, schedule: Q01DX001 (ip), vehicle: carboxymethylcellulose (CMC) 120 % of control | dose: 120.0 mg/kg/injection, schedule: Q01DX Z (ip), vehicle: methylcellulose (MC) 124 % of control | dose: 200.0 mg/kg/injection, schedule: Q01DX001 (ip), vehicle: carboxymethylcellulose (CMC) 120 % of control | dose: 225.0 mg/kg/injection, schedule: Q01DX009 (ip), vehicle: saline with Tween-80 117 % of control | dose: 340.0 mg/kg/injection, schedule: Q01DX009 (ip), vehicle: saline with Tween-80 88 % of control | dose: 400.0 mg/kg/injection, schedule: Q01DX001 (ip), vehicle: carboxymethylcellulose (CMC) 108 % of control

O=C(OCc1ccc([N+](=O)[O-])o1)c1ccc(Cl)cc1
inactive: [1] 97 % of control | [2] 101 % of control | [3] 92 % of control

Cn1c(N)c(N=CC2CCCCC2)c(=O)n(C)c1=O
inactive: [1] 100 % of control | [2] 100 % of control | [3] 102 % of control

COc1cccc(NC(=S)NNC(=S)NNc2ccccc2)c1
inactive: [4] 108 % of control | [5] 100 % of control | [6] 100 % of control

Cc1ccc2c(ccc3ccccc32)n1
inactive: [7] 97 % of control | [8] 90 % of control | [9] 90 % of control

O=C(Cc1cc2c(cc1[N+](=O)[O-])OCO2)c1c[nH]c2ccccc12
inactive: dose: 50.0 mg/kg/injection, schedule: Q01DX001 (ip), vehicle: saline 98 % of control | [1] 98 % of control | [2] 95 % of control | [3] 101 % of control

CCC(C)C(C=O)(CCN(C)CC)c1cccc2ccccc12 (stereo not given)
inactive: [10] 91 % of control | [11] 94 % of control

Cc1c(NC(=O)CCl)c(=O)n(-c2ccccc2)n1C
inactive: [4] 98 % of control | [7] 100 % of control | [5] 94 % of control | [8] 96 % of control | [9] 95 % of control

OCC(O)C(O)C(O)C1COC(CBr)O1 (stereo not given)
inactive: dose: 100.0 mg/kg/injection, schedule: Q04DX002 (ip), vehicle: Klucel (hydroxypropylcellulose) (HPC) 90 % of control | dose: 200.0 mg/kg/injection, schedule: Q04DX002 (ip), vehicle: Klucel (hydroxypropylcellulose) (HPC) 93 % of control | dose: 400.0 mg/kg/injection, schedule: Q04DX002 (ip), vehicle: Klucel (hydroxypropylcellulose) (HPC) 108 % of control

COC(=O)C(=C/C=C/c1cc(O)c(O)c(O)c1)C(=O)OC
inactive: dose: 50.0 mg/kg/injection, schedule: Q01DX001 (ip), vehicle: other 104 % of control | dose: 100.0 mg/kg/injection, schedule: Q01DX001 (ip), vehicle: other 98 % of control | dose: 200.0 mg/kg/injection, schedule: Q01DX001 (ip), vehicle: other 95 % of control

COc1ccc(N=Cc2ccccc2O)cc1
inactive: dose: 100.0 mg/kg/injection, schedule: Q04DX003 (ip), vehicle: other 100 % of control | dose: 200.0 mg/kg/injection, schedule: Q04DX003 (ip), vehicle: other 96 % of control | dose: 400.0 mg/kg/injection, schedule: Q04DX003 (ip), vehicle: other 98 % of control

CC(=O)OC1C=CN(C(C)=O)C(SC(C)(C)C)C1OC(C)=O (stereo not given)
inactive: [4] 101 % of control | [5] 106 % of control | [6] 100 % of control

CC(=O)OC1CCC2(C)C(CCC3C2CC(=O)C2(C)C3CC(Sc3ccc(N(CCCl)CCCl)cc3)C2C(C)=O)C1 (stereo not given)
inactive: dose: 100.0 mg/kg/injection, schedule: Q01DX001 (sc), vehicle: steriod suspending solution 108 % of control | dose: 200.0 mg/kg/injection, schedule: Q01DX001 (sc), vehicle: steriod suspending solution 103 % of control | dose: 400.0 mg/kg/injection, schedule: Q01DX001 (sc), vehicle: steriod suspending solution 105 % of control

N=C(N)SCc1cccc([N+](=O)[O-])c1
inactive: [10] 102 % of control | [11] 102 % of control

O=C1NC(=O)c2cc([N+](=O)[O-])cc3cccc1c23
inactive: [1] 94 % of control | dose: 100.0 mg/kg/injection, schedule: Q01DX009 (ip), vehicle: saline sonified 90 % of control | [7] 97 % of control | [2] 97 % of control | dose: 200.0 mg/kg/injection, schedule: Q01DX009 (ip), vehicle: saline sonified 95 % of control | [8] 87 % of control | [3] 90 % of control | dose: 400.0 mg/kg/injection, schedule: Q01DX009 (ip), vehicle: saline sonified 88 % of control | [9] 86 % of control

CC(=O)n1cc(/C=C2\N=C(c3ccccc3)OC2=O)c2ccccc21
inactive: [4] 94 % of control | [5] 96 % of control | [6] 94 % of control

CN(C)NC(=O)/C=C/c1ccccc1
inactive: [4] 112 % of control | [7] 94 % of control | [5] 102 % of control | [8] 100 % of control | [9] 87 % of control

CN(CCN(N=O)C(N)=O)[N+](=O)[O-]
inactive: dose: 100.0 mg/kg/injection, schedule: Q04DX002 (ip), vehicle: other 98 % of control | dose: 200.0 mg/kg/injection, schedule: Q04DX002 (ip), vehicle: other 94 % of control | dose: 400.0 mg/kg/injection, schedule: Q04DX002 (ip), vehicle: other 109 % of control

N#CC1SCCCS1
inactive: dose: 50.0 mg/kg/injection, schedule: Q01DX001 (ip), vehicle: Klucel (hydroxypropylcellulose) (HPC) 104 % of control | dose: 100.0 mg/kg/injection, schedule: Q01DX001 (ip), vehicle: Klucel (hydroxypropylcellulose) (HPC) 105 % of control | [12] 101 % of control | dose: 200.0 mg/kg/injection, schedule: Q01DX001 (ip), vehicle: Klucel (hydroxypropylcellulose) (HPC) 96 % of control | [13] 108 % of control | dose: 400.0 mg/kg/injection, schedule: Q04DX002 (ip), vehicle: saline with Tween-80 108 % of control

c1ccc(-c2cc(-c3ccccc3)on2)cc1
inactive: [7] 100 % of control | [8] 98 % of control | [9] 102 % of control

CCCC=C(CCCC)CCCC
inactive: [12] 87 % of control | [13] 94 % of control

O=P(CCCl)(CCCl)CCCl
inactive: dose: 50.0 mg/kg/injection, schedule: Q01DX009 (ip), vehicle: saline 87 % of control | dose: 50.0 mg/kg/injection, schedule: Q04DX003 (ip), vehicle: saline 98 % of control | dose: 100.0 mg/kg/injection, schedule: Q01DX009 (ip), vehicle: saline 87 % of control | dose: 100.0 mg/kg/injection, schedule: Q04DX003 (ip), vehicle: saline 106 % of control | dose: 200.0 mg/kg/injection, schedule: Q01DX009 (ip), vehicle: saline 90 % of control | dose: 200.0 mg/kg/injection, schedule: Q04DX003 (ip), vehicle: saline 101 % of control | dose: 400.0 mg/kg/injection, schedule: Q04DX003 (ip), vehicle: saline 101 % of control
